According to ChEMBL document CHEMBL1140513, “Heteroatom-linked indanylpyrazines are corticotropin releasing factor type-1 receptor antagonists” (Bioorg Med Chem Lett, 2007):

Molecular target: T1, Corticotropin-releasing factor receptor 1 (Homo sapiens, UniProt P34998)
T1 sequence (P34998 whole entry): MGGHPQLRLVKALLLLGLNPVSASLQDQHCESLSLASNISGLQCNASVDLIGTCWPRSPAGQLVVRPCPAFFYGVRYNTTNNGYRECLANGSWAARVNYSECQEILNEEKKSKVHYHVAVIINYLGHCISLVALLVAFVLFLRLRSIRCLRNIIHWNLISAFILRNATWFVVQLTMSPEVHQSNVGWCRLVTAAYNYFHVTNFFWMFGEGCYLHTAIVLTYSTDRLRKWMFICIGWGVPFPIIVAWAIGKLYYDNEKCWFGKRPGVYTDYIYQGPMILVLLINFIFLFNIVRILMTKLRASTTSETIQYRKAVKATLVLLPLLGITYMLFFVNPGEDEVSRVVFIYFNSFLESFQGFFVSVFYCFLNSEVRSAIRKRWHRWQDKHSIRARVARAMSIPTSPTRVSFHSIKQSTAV
Assay: Displacement of [125I]Tyr-o-CRF from CRF1 receptor in IMR32 cells
Format: cell-based, IMR-32

Question: For `CCc1nc(NC(CC)c2ccccc2)c(CC)nc1Nc1ncc(Cl)cc1Cl` (centres undefined), which Ki is on record?
Answer: > 10000 nM

Question: Which Ki does the source give for `CCO[C@H]1Cc2ccccc2[C@H]1Nc1nc(CC)c(Oc2cc(C)ccn2)nc1CC` here?
Answer: 35 nM

Question: With `CCO[C@@H]1Cc2ccccc2[C@H]1Nc1nc(CC)c(Oc2cc(C)ccn2)nc1CC` as the compound, how does the Ki read?
Answer: > 10000 nM

Question: How did the Ki turn out when `CCc1nc(Oc2cc(C)ccn2)c(CC)nc1N[C@@H]1c2ccccc2C[C@@H]1OC(C)=O` was run?
Answer: 2020 nM

Question: How did the Ki turn out when `CCCN(CCC)c1nc(CC)c(Oc2cc(C)ccn2)nc1CC` was run?
Answer: 711 nM

Question: How did the Ki turn out when `CCO[C@H]1Cc2ccccc2[C@@H]1Nc1nc(CC)c(Oc2cc(C)ccn2)nc1CC` was run?
Answer: 5470 nM

Question: With `CCc1nc(NC(CC)CC)c(CC)nc1Nc1ncc(Cl)cc1Cl` as the compound, how does the Ki read?
Answer: 115 nM

Question: How did the Ki turn out when `CCc1nc(NC(CC)CC)c(CC)nc1Nc1ccccn1` was run?
Answer: > 10000 nM

Question: How did the Ki turn out when `CCO[C@H]1Cc2ccccc2[C@H]1Nc1nc(CC)c(Oc2ncccc2C)nc1CC` was run?
Answer: 509 nM

Question: With `CCCO[C@H]1Cc2ccccc2[C@H]1Nc1nc(CC)c(Oc2cc(C)ccn2)nc1CC` as the compound, how does the Ki read?
Answer: 30 nM

Question: Which Ki does the source give for `CCO[C@H]1Cc2ccccc2[C@H]1Nc1nc(CC)c(Oc2cccc(C)n2)nc1CC` here?
Answer: 472 nM

Question: Which Ki does the source give for `CCc1nc(Oc2cc(C)ccn2)c(CC)nc1NC(CC)CC` here?
Answer: > 10000 nM

Question: With `CCc1nc(NC(CC)CC)c(CC)nc1Nc1ccc(Cl)cc1Cl` as the compound, how does the Ki read?
Answer: > 10000 nM

Question: For `CCc1nc(Oc2cc(C)ccn2)c(CC)nc1N[C@H]1c2ccccc2C[C@H]1O`, which Ki is on record?
Answer: > 10000 nM

Question: Which Ki does the source give for `CCc1nc(NC(CC)CC)c(CC)nc1Nc1ccc([N+](=O)[O-])cn1` here?
Answer: > 10000 nM

Question: How did the Ki turn out when `CCc1nc(N[C@@H]2c3ccccc3C[C@@H]2OCCF)c(CC)nc1Nc1ncc(Cl)cc1Cl` was run?
Answer: 1730 nM

Question: With `CCOCC(Nc1nc(CC)c(Oc2cc(C)ccn2)nc1CC)c1ccccc1` (centres undefined) as the compound, how does the Ki read?
Answer: 384 nM

Question: `CCc1nc(NC(CC)CC)c(CC)nc1Nc1cccc(C)n1` was tested. Which Ki did it give?
Answer: 3380 nM

Question: With `CCO[C@@H]1Cc2ccccc2[C@@H]1Nc1nc(CC)c(Oc2cc(C)ccn2)nc1CC` as the compound, how does the Ki read?
Answer: > 10000 nM
